How the values were obtained:
Type in all cases: cell-based
[1] = tested on: SK-N-SH neuroblastoma cells; assay: Cytotoxicity assay, MTS viability; conditions: Homo sapiens, 72 hours
Experimental: The ability of compounds of the disclosure to inhibit the proliferation of SK—N—SH neuroblastoma cells was assessed. The SK—N—SH cell line was maintained as a monolayer in Dulbeccos Modified Eagles medium (DMEM) supplemented with 10% foetal bovine serum (FBS) and grown at 37° C. in a humidified atmosphere with 5% CO2. For the cytotoxicity assay, SK—N—SH cells were seeded at a density of 2×10^3 cells per well in 96-well plates. The cells were treated with serial dilutions of the test compounds (1:2 starting concentration 100 µM) and viability measured after 72 hours using a standard MTS assay. Cell viability was normalised to control (vehicle alone) and dose response curves and EC50 values (Table 3) were determined using Graph Pad Prism 6.

A2780 (ovarian) cells = assay: Anti-proliferative activity, Cell-Titre luminescent viability assay; conditions: Homo sapiens, 72 h exposure, Cell-Titre luminescent reagent
Experimental: (§1) The ability of compounds of the disclosure to inhibit the proliferation of cancer cells representative of non-small cell lung cancer and ovarian cancer (Table 1), and pancreatic cancer, colorectal cancer and prostate cancer (Table 2) was assessed. Briefly, a predetermined number of cells as calculated from cell growth assays for each of the cell lines employed were seeded into their respective culture medium (using ATCC culture parameters—http://www.atcc.org) and cultured for 24 h at 37° C. and 5% CO2 in 96-well culture plates. Once attached, each cell line was then exposed to various concentrations of each respective analogue (100, 30, 10, 3, 1 and 0.3 µM or 30, 10, 3, 1, 0.3 and 0.1 μM), cultured for a further 72 h and exposed to Cell-Titre luminescent reagent (100 μL/well) for a further 30 min. Luminescence was captured using an EnVision multilabel reader and the data for each analogue concentration compared against no treatment control. Cell viability was normalised to control (vehicle alone) and dose response curves, and half maximal effective concentration (EC50) values were determined using Graph Pad Prism 6 (nonlinear regression sigmoidal dose-response variable slope).

A549 (NSCLC) cells = assay: as above; conditions: Homo sapiens, 72 h exposure, Cell-Titre luminescent reagent
Experimental: as §1

Structure (SMILES)	IC50 (A2780 (ovarian) cells)	IC50 (A549 (NSCLC) cells)	IC50 [1]
CCc1cccc(NC(=O)c2ccn(S(=O)(=O)c3ccc4[nH]ccc4c3)c2)c1 [Compound 41, 1-((1H-indol-5-yl)sulfonyl)-N-(3-ethylphenyl)-1H-pyrrole-3-carboxamide]	1.1 µM	12.8 µM	16.2 µM
O=C(Nc1cccc(C(F)(F)F)c1)C1CCN(S(=O)(=O)c2ccc3[nH]ccc3c2)CC1 [Compound 63, 1-((1H-indol-5-yl)sulfonyl)-N-(3-(trifluoromethyl)phenyl) piperidine-4-carboxamide]	10.9 µM	12.6 µM	13.5 µM
CCC(C)c1cccc(NC(=O)c2ccn(S(=O)(=O)c3ccc4[nH]ccc4c3)c2)c1 (stereo not drawn) [Compound 35, 1-((1H-indol-5-yl)sulfonyl)-N-(3-(sec-butyl)phenyl)-1H-pyrrole-3-carboxamide]	2.2 µM	3.6 µM	6.81 µM
O=C(Nc1cccc(C(F)(F)F)c1)c1ccn(S(=O)(=O)c2ccc3[nH]ccc3c2)c1 [Compound 46, 1-((1H-indol-5-yl)sulfonyl)-N-(3-(trifluoromethyl)phenyl)-1H-pyrrole-3-carboxamide]	7.1 µM	7.7 µM	14.7 µM
O=C(Nc1ccccc1F)c1ccn(S(=O)(=O)c2ccc3[nH]ccc3c2)c1 [Compound 50, 1-((1H-indol-5-yl)sulfonyl)-N-(2-fluorophenyl)-1H-pyrrole-3-carboxamide]	1.8 µM	4 µM	11.5 µM
CCC(C)c1ccc(NC(=O)c2ccn(S(=O)(=O)c3ccc4[nH]cc(C)c4c3)c2)cc1 (stereo not drawn) [Compound 58, N-(4-(sec-butyl)phenyl)-1-((3-methyl-1H-indol-5-yl)sulfonyl)-1H-pyrrole-3-carboxamide]	2.1 µM	3.8 µM	14 µM

Second part, led by results:

IC50 (A2780 (ovarian) cells)	IC50 (A549 (NSCLC) cells)	Structure (SMILES)	IC50 [1]
> 100 µM	> 100 µM	Cc1ccc(NC(=O)c2ccn(S(=O)(=O)c3ccc4[nH]ccc4c3)c2)cc1O [Compound 25, 1-((1H-indol-5-yl)sulfonyl)-N-(3-hydroxy-4-methylphenyl)-1H-pyrrole-3-carboxamide]	30 µM
5.4 µM	3.2 µM	CCC(C)c1ccc(CCC2CCN(S(=O)(=O)c3cc(C(N)=O)n(C)c3)CC2)cc1 (stereo not drawn) [Compound 34, 4-((4-(4-(sec-butyl)phenethyl)piperidin-1-yl)sulfonyl)-1-methyl-1H-pyrrole-2-carboxamide]	46.2 µM
5.3 µM	11.6 µM	O=C(Nc1ccc(C(F)(F)F)cc1)c1ccn(S(=O)(=O)c2ccc3c(c2)CCN3)c1 [Compound 23, 1-(indolin-5-ylsulfonyl)-N-(4-(trifluoromethyl)phenyl)-1H-pyrrole-3-carboxamide]	12.8 µM
28.8 µM	17.3 µM	Cc1ccc(NC(=O)N2CCN(S(=O)(=O)c3ccc4[nH]ccc4c3)CC2)cc1O [Compound 16, 4-((1H-indol-5-yl)sulfonyl)-N-(3-hydroxy-4-methylphenyl)piperazine-1-carboxamide]	31.5 µM
6.23 µM	14.1 µM	N#Cc1ccc(NC(=O)c2ccn(S(=O)(=O)c3ccc4[nH]ccc4c3)c2)cc1 [Compound 67, 1-((1H-indol-5-yl)sulfonyl)-N-(4-cyanophenyl)-1H-pyrrole-3-carboxamide]	15.7 µM
6.1 µM	8.9 µM	CCC(C)c1ccccc1NC(=O)c1ccn(S(=O)(=O)c2ccc3[nH]ccc3c2)c1 (stereo not drawn) [Compound 36, 1-((1H-indol-5-yl)sulfonyl)-N-(2-(sec-butyl)phenyl)-1H-pyrrole-3-carboxamide]	22.2 µM
4.1 µM	6.3 µM	O=C(Nc1cccc(F)c1)c1ccn(S(=O)(=O)c2ccc3[nH]ccc3c2)c1 [Compound 49, 1-((1H-indol-5-yl)sulfonyl)-N-(3-fluorophenyl)-1H-pyrrole-3-carboxamide]	15.4 µM
